Read-outs that look alike come from different tables or passages of the source. Peptide text beside a SMILES is read from it.
Experiments:
TLR9 = assay: TLR9-mediated interferon responses in PBMC cultures (IFN-α ELISA); format: cell-based, human
Method: CpG motifs are present in a variety of DNA viruses and CpG signaling is relevant to host defense against viral infections. Briefly, PBMC primary cultures were prepared from 2 donors. […] E. coli ssDNA (5 μg/mL) or PBS (unstimulated). The readouts for IFN-α in cell supernatant were measured by ELISA.

[1] = test system: imiquimod-induced inflammatory responses of the skin; assay: Topical omiganan and imiquimod in skin of healthy subjects; format: in vivo, human
Method: Sixteen (16) healthy subjects participated in the study. Pharmacodynamic effects were assessed on Day 1, 2, 3, 4, 5 and 14 (EOS) by clinical assessment of the lesion on-site with visual erythema grading by a blinded investigator, erythema by colorimetry, erythema by multispectral imaging, erythema by 2D photography analysis, perfusion by laser speckle contrast imaging (LSCI), skin surface biomarkers by transdermal analysis patch (TAP) and local biopsies biomarkers. […] 3 mm skin punch biopsies were collected at day 5 for qPCR mRNA expression, histology and immunohistochemistry. Enhanced inflammation and immune system activation was observed when OMN was applied to 48 hours IMQ primed skin. This was most pronounced for markers IFNγ, IL-10, IL-6, MX1 and MXA (FIGS. 39-43, respectively) indicating an increased anti-viral response. Further, this activity is correlated with cellular infiltrates of CD4+, CD8+ and CD14+ cells (FIGS. 44-47).

[2] = test system: external anogenital warts; format: in vivo, human
Method: A randomized, double-blind, placebo-controlled study to assess the pharmacodynamics, safety/tolerability and efficacy of omiganan in patients with external anogenital warts was conducted. 24 patients aged 18 years or older with clinically diagnosed external anogenital warts were enrolled. […] The gel was applied topically once daily for 12 weeks. The treatment period was from day 0 till day 84. During the treatment period subjects visited the clinical unit on days 0, 14, 28, 56 and 84. A fixed dose of omiganan or placebo was applied once daily. Two follow up visits were scheduled on days 126 and 168. During study execution, vital signs were measured on days 0, 14, 28, 56 and 84. Pharmacodynamic assessments were performed on day 0 (pre-dose), 14, 28, 56 and 84, respectively. Punch biopsies were performed at the screening and on days 56 and 168. Subjects were dosed 84 consecutive days with approximately 24 hours between each treatment. Omiganan or placebo (vehicle) was administered to the subjects. […] Subjects were instructed to apply a fingertip unit of gel (approximately […]). Omiganan is prepared as a lyophilized powder of the pentahydrochloride salt. The molecular formula is C90H127N27O12. HCl*H2O. […] Any other therapy for external anogenital warts (topical treatment, laser therapy, cryotherapy, photodynamic therapy and surgical excision) was not allowed from 28 days prior to the first study drug administration, during the study and until the 3 month follow up assessment was completed. Wart count and wart clearance. The warts were counted at every study visit. FIGS. 18A and 18B show the change in value of the count of the target warts over time per treatment. […] Wart clearance was derived from the count of all warts present at baseline. In FIG. 19, the proportion of baseline lesions cleared is shown. […] Wart size. Wart size was measured during every visit. The change in mean of the long and short diameter, height and volume measured is presented in FIG. 21 along with the p-values.

[3] = 6.25 or 25 μg/mL omiganan 30min pre-incubation, 24hr
[4] = omiganan applied after imiquimod application

CC[C@H](C)[C@H](N)C(=O)N[C@@H](CC(C)C)C(=O)N[C@@H](CCCNC(=N)N)C(=O)N[C@@H](Cc1c[nH]c2ccccc12)C(=O)N1CCC[C@H]1C(=O)N[C@@H](Cc1c[nH]c2ccccc12)C(=O)N[C@@H](Cc1c[nH]c2ccccc12)C(=O)N1CCC[C@H]1C(=O)N[C@@H](Cc1c[nH]c2ccccc12)C(=O)N[C@@H](CCCNC(=N)N)C(=O)N[C@@H](CCCNC(=N)N)C(=O)N[C@@H](CCCCN)C(N)=O [omiganan, I L R W P W W P W R R K] (H-ILRWPWWPWRRK-NH2)
CpG-A IFN-α responses (TLR9; [3]): strongly enhanced
CpG-B IFN-α responses (TLR9; [3]): did so strongly
CpG-C IFN-α responses (TLR9; [3]): concentration-dependently enhanced
ssDNA-driven IFN-α responses (TLR9; omiganan pre-incubation, E. coli ssDNA 5 μg/mL): initial inhibition of cytokine release at low omiganan concentrations, and an enhancement of cytokine release at higher omiganan concentrations
relation of this activity to cellular infiltrates of CD4+, CD8+ and CD14+ cells ([1]; applied to 48 hours IMQ primed skin, biopsies day 5): correlated
inflammation and immune system activation (most pronounced for IFNγ, IL-10, IL-6, MX1, MXA) ([1]; applied to 48 hours IMQ primed skin, biopsies day 5, qPCR): Enhanced
basal blood flow [1, 4]: enhanced the activity of imiquimod
erythema [1, 4]: enhanced the activity of imiquimod
proportion of all lesions cleared (printed: mean of baseline warts cleared) ([2]; EOS, p-value=0.2891 vs vehicle): 23.82%
mean of baseline warts cleared ([2]; EOS, p-value=0.3918 vs vehicle): 29.3%
mean of all warts cleared ([2]; EOT, p-value=0.1879 vs vehicle): 11.4%
mean of baseline warts cleared ([2]; EOT, p-value=0.2500 vs vehicle): 15.5%
mean volume of the target warts compared to vehicle ([2]; at EOT visit, p-value=0.0367): significantly lower
volume of the warts compared to vehicle ([2]; entire study period (pre-dose till EOS), p=0.0655): trend to reduction
adverse events ([2]; human, in vivo): few adverse events
safety of administration to patients with external anogenital warts ([2]; human, in vivo): safe
height of the warts compared to vehicle ([2]; p=0.0543): clear trend in decrease
wart count ([2]; summary of study): trend in reduction
photography assessment of anogenital warts ([2]; two subjects treated with omiganan): visible wart size reduction or even clearance

Reference: patent US20200360471A1, “METHODS OF TREATING AND PREVENTING VIRAL INFECTIONS” (priority 2017, published 2020)
